Results on 12 molecules are retold here after publication PMC4479967 (Journal of molecular neuroscience : MN, 2015).

Entries after “also recorded” stand apart in the source; their conditions may differ.

One data set deals with SCLC. The following applies: basal or CCK-8-stimulated growth; ref Moody and Jensen, 2001; cited from earlier work.
Another data set has as its system SCLC cells. To be noted: ref Staley et al., 1990; cited from earlier work.
The test system of another data set is CCK2R. The following applies: ref Innes and Snyder, 1980; cited from earlier work.
In data set [1] the test system is reactive oxygen species in NCI-H727 cells. Put plainly: Reactive oxygen species in NCI-H727 cells. It counts as cell-based, human. To be noted: CI-988 (10 µM, Table II), Tiron unpublished (T. Moody).
Data set [2] deals with EGFR tyrosine phosphorylation in NCI-H727 cells. Put plainly: EGFR tyrosine phosphorylation. To be noted: for Inhibition of CCK-8-induced EGFR tyrosine phosphorylation, in words: NCI-H727 cells, concentration not given at this place; for Significance of inhibition of CCK-8-induced EGFR tyrosine phosphorylation: Fig. 2B. It counts as cell-based, human.
The test system of data set [3] is cytosolic Ca2+ in NCI-H727 cells. Put plainly: Cytosolic Ca2+ in Fura-2AM loaded NCI-H727 cells. The following applies: for Effect on basal cytosolic Ca2+: CI-988 1 µM (Fig. 3D), L-364,718 concentration not printed (Fig. 3C). Type of data set: cell-based, human.
Another data set concerns CCK1R. The following applies: ref Jensen et al., 1989; cited from earlier work.
For data set [4], the system named is TGF α secretion from NCI-H727 cells. Put plainly: TGF α secretion from NCI-H727 cells. It counts as cell-based, human. The following applies: preliminary data, T. Moody unpublished.
For data set [5], the system named is ERK tyrosine phosphorylation in NCI-H727 cells. The experiment in a line: ERK tyrosine phosphorylation. The following applies: for Inhibition of CCK-8-induced ERK phosphorylation, in words / Inhibition of CCK-8-induced ERK phosphorylation (T. Moody, unpublished): NCI-H727 cells; for Inhibition of CCK-8-induced ERK phosphorylation, in words: concentration not given at this place; for Inhibition of CCK-8-induced ERK tyrosine phosphorylation: Fig. 2C. It counts as cell-based, human.

The conditions of data set [6]: cited from earlier work.
Another data set concerns GLC19 cells. The following applies: literature discussion, ref Sethi et al., 1993; cited from earlier work.
The subject of a further data set is NCI-H510 cells. The following applies: 0.1 µM; ref Sethi et al., 1993; cited from earlier work.
Data set [7] relates to NCI-H727 cells. Put plainly: MTT proliferation assay, NCI-H727 cells.
For data set [8], the system named is NCI-H727 cells. The experiment in a line: Clonogenic assay, clonal growth of NCI-H727 cells. To be noted: for Effect on CCK-8-stimulated increase in colony number: CI-988 3 µM or gefitinib 1 µM, CCK-8 10 nM.
The next data set deals with AR42J cells. To be noted: cited from earlier work.
Where [9] appears, read: 5 mM NAC or Tiron (Fig. 4A, B), p < 0.05 relative to CCK-8.
Setting [10] is: 10 µM as printed in legend (Fig. 4C).

With `Cc1cccc(NC(=O)N[C@@H]2N=C(c3ccccc3)c3ccccc3N(C)C2=O)c1` [L-365,260], the “Effect on SCLC growth” value with SCLC was “inhibit”. Besides, the “Antagonism of effects of CCK-8 on SCLC cells” value in the data set on SCLC cells is given as “blocked”. Moreover, the “CCK2R antagonism, in words” value with CCK2R was “antagonized”.
For `O=S(=O)(O)c1cc(O)c(O)c(S(=O)(=O)O)c1` [Tiron], the “Inhibition of CCK-8-induced ROS increase, in words” value in [1] is on record as “inhibited”. The “Effect on basal EGFR tyrosine phosphorylation” value in data set [2] (5 mM (Fig. 4A)) is given as “no effect”. The “Inhibition of CCK-8-induced EGFR transactivation” value in [2] (setting [9]) is “inhibited significantly; also recorded: inhibited the increase in EGFR transactivation”. The “Inhibition of CCK-8-induced EGFR tyrosine phosphorylation, in words” value is “inhibited” in data set [2] and “blocked” in [2] (listed as tiron).
Consider `CN1C(=O)[C@@H](NC(=O)c2cc3ccccc3[nH]2)N=C(c2ccccc2)c2ccccc21` [L-364,718], for which the “Effect on basal cytosolic Ca2+” value in data set [3] is on record as “no effect”. Further, the “CCK1R antagonism, in words” value in the data set with CCK1R was “antagonized”. Moreover, the “Antagonism of effects of CCK-8 on SCLC cells” value in the data set with SCLC cells is “not L-364,718”.
In the case of `CNC(=O)[C@H](Cc1c[nH]c2ccccc12)NC(=O)[C@@H](CC(=O)NO)CC(C)C` [GM6001], in data set [4], the “Effect on CCK-8-stimulated secretion of TGF α” value is “inhibits”. Further, the “Effect on basal EGFR tyrosine phosphorylation” value in data set [2] (setting [10]) was “no effect”. Further, the “Inhibition of CCK-8-induced EGFR tyrosine phosphorylation” value in [2] (GM6001 1 µM as printed in text (Fig. 4C, D), p < 0.01 relative to CCK-8) is recorded as “significantly inhibited”. Also, the “Inhibition of CCK-8-induced EGFR transactivation” value in data set [2] (GM6001 10 µM as printed in legend of Fig. 4C) is given as “inhibited the increase in EGFR transactivation”. For the same molecule, the “Inhibition of CCK-8-induced EGFR tyrosine phosphorylation, in words” value in [2] is given as “blocked; also recorded: significantly inhibited”. Moreover, the “Inhibition of CCK-8-induced ERK phosphorylation, in words” value in [5] is given as “significantly inhibited”.
As to gastrin, the “Effect on heparin binding (HB) EGF” value in [6] (PKC-dependent, ref Sinclair et al., 2004) was “increases”. Further, in [6] (colon cancer cells, ref Colucci et al., 2005), the “Effect on COX-2 and prostaglandin E2 expression” value is “increases COX-2 and prostaglandin E2 expression”. The “Effect on MMP9 expression” value in [6] (gastric epithelial cells, ref Wroblewski et al., 2002) is “increases”. Moreover, the “Effect on ELK-1 and COX-2 expression” value in data set [6] (intestinal epithelial cells, ref Guo et al., 2002) is “increased ELK-1 and COX-2 expression”. In [6] (ref Stepan et al., 1999), the “Effect on c-fos expression” value is reported as “increases c-fos expression”. Also, in [6] (ref Tsutsui et al., 1997), the “Effect on expression of HB-EGF and amphiregulin” value was “increases”. Besides, in the data set on GLC19 cells, the “Effect on cytosolic Ca2+ in GLC19 cells” value was “no effect”. For the same molecule, the “Effect on cytosolic Ca2+ in NCI-H510 cells” value in the data set with NCI-H510 cells is reported as “increased cytosolic Ca^2+”. In [3] (10 nM, Fura-2AM, 37°C, representative of 3 others (Fig. 3A, B)), the “Effect on cytosolic Ca2+, in words” value is reported as “increased the cytosolic Ca^2+”.
With `C[C@](Cc1c[nH]c2ccccc12)(NC(=O)OC1[C@H]2C[C@@H]3C[C@@H](C[C@H]1C3)C2)C(=O)NC[C@H](NC(=O)CCC(=O)O)c1ccccc1` (stereo partly drawn) [CI-988], the “Inhibition of CCK-8-induced ROS increase, in words” value in data set [1] is reported as “blocked significantly; also recorded: inhibited”. Further, the “Effect on SCLC growth” value with SCLC was “inhibit”. Further, the “Potentiation of growth inhibitory effects of gefitinib” value with NCI-H727 cells [7] (NCI-H727 cells) was “potentiated the growth inhibitory effects of gefitinib”. Further, the “Colony number + 10 nM CCK-8” value in the data set on NCI-H727 cells [8] (CI-988 3 uM + 10 nM CCK-8 (CCK-8 alone 74 ± 9), mean ± S.D. of 3 determinations) was found to be 44 ± 5. Further, the “Effect on CCK-8-stimulated increase in colony number” value in the data set on NCI-H727 cells [8] is listed as “reversed”. The Colony number in the data set with NCI-H727 cells [8] (CI-988 3 uM, no CCK-8, control 42± 6, mean ± S.D. of 3 determinations, 2 weeks) worked out at 21 ± 3. In addition, the “Reduction of colony number” value in the data set on NCI-H727 cells [8] (CI-988 (3 µM), no CCK-8) was determined as 50%. Also, the “Effect on NCI-H727 proliferation, in words” value with NCI-H727 cells [8] (NCI-H727 cells) is “inhibit proliferation”. Besides, the “Effect on basal growth or growth stimulated by CCK-8, in words” value with NCI-H727 cells [8] (NCI-H727 cells) is “inhibited the basal growth of NCI-H727 cells or that stimulated by CCK-8”. Moreover, in [3], the “Effect on basal cytosolic Ca2+” value is “no effect”. In addition, the figures for the “Inhibition of CCK-8-induced EGFR tyrosine phosphorylation” value in data set [2] (CI-988 1 µM vs 0.1 µM CCK-8 (Fig. 2A)) and in [2] (CI-988 10 µM vs 0.1 µM CCK-8 (Fig. 2A)) were “weakly” and “strongly”, respectively. Moreover, the “Significance of inhibition of CCK-8-induced EGFR tyrosine phosphorylation” value in [2] (CI-988 1 µM) was “not 1 µM”; in [2] (CI-988 10 µM, p < 0.01 relative to CCK-8) it was “significantly inhibited”. For the same molecule, in [2], the “Inhibition of CCK-8-induced EGFR tyrosine phosphorylation, in words” value is given as “blocked; also recorded: significantly inhibited”. Further, in data set [2] (Western blot, Fig. 2A), the “Effect on total EGFR” value is recorded as “no effect”. In addition, the “Antagonism of gastrin-17-induced EGFR tyrosine phosphorylation” value in data set [2] (data not shown) is on record as “antagonized”. The “Inhibition of CCK-8-induced ERK tyrosine phosphorylation” value in data set [5] (CI-988 1 µM) is reported as “not 1 µM”; in [5] (CI-988 10 µM, p < 0.05 relative to CCK-8), “significantly inhibited”. Moreover, the “Inhibition of CCK-8-induced ERK phosphorylation, in words” value in data set [5] was “significantly inhibited”. Also, the “Inhibition of CCK-8-induced ERK phosphorylation (T. Moody, unpublished)” value in [5] is given as “blocked”. The “Effect on total ERK” value in data set [5] (Western blot, Fig. 2A) was “no effect”. In addition, in [5] (data not shown), the “Antagonism of gastrin-17-induced ERK tyrosine phosphorylation” value is recorded as “antagonized”.
As to `COc1cccc(-c2cc(=O)c3ccccc3o2)c1N` [PD98059], in [5], the “Inhibition of CCK-8-induced ERK phosphorylation (T. Moody, unpublished)” value was “blocked”.
`CC(C)(C)n1nc(-c2ccc(Cl)cc2)c2c(N)ncnc21` [PP2]: in the data set on AR42J cells (ref Ferrand et al., 2006), the “Effect on CCK-8-stimulated increase in P-Src and P-ERK in AR42J cells” value was “inhibited”. Besides, the “Inhibition of CCK-8-induced EGFR tyrosine phosphorylation” value in [2] (10 µM PP2 (Fig. 4C, D), p < 0.01 relative to CCK-8) is reported as “significantly inhibited; also recorded: inhibited the increase in EGFR transactivation”. Further, the “Effect on basal EGFR tyrosine phosphorylation” value in data set [2] (setting [10]) is listed as “no effect”. Also, in [2], the “Inhibition of CCK-8-induced EGFR tyrosine phosphorylation, in words” value is given as “blocked; also recorded: significantly inhibited”. The “Inhibition of CCK-8-induced ERK phosphorylation, in words” value in data set [5] is “significantly inhibited”.
On to “EGF: epidermal growth factor, EGFR ligand (NSDSECPLSHDGYCLHDGVCMYIEALDKYACNCVVGYIGERCQYRDLKWWELR; UniProt P01133 971-1023, looked up)”, for which, in data set [2] (0.1 µM (100 nM) ligand, 2 min, NCI-H727), the “EGFR tyrosine phosphorylation, in words” value is listed as “strongly”.
Take `COc1cc2ncnc(Nc3ccc(F)c(Cl)c3)c2cc1OCCCN1CCOCC1` [Gefitinib]: the “Increase in cytotoxicity of gefitinib in presence of CI-988” value in the data set with NCI-H727 cells [7] (gefitinib with CI-988) is recorded as “approximately an order of magnitude”. Further, the “Effect on CCK-8-stimulated increase in colony number” value in the data set on NCI-H727 cells [8] was “reversed”. In addition, the “Effect on basal growth or growth stimulated by CCK-8, in words” value with NCI-H727 cells [8] (NCI-H727 cells) was “inhibited the basal growth of NCI-H727 cells or that stimulated by CCK-8”. The “Reduction of colony number” value in the data set on NCI-H727 cells [8] (gefitinib (1 µM), no CCK-8) was 37%.
As to `CC(=O)N[C@@H](CS)C(=O)O` [NAC, N-acetylcysteine], the “Effect on basal EGFR tyrosine phosphorylation” value in data set [2] (5 mM (Fig. 4A)) is listed as “no effect”. For the same molecule, the “Inhibition of CCK-8-induced EGFR transactivation” value in data set [2] (setting [9]) was “inhibited significantly; also recorded: inhibited the increase in EGFR transactivation”.
Regarding `COc1cc2ncnc(Nc3cccc(Cl)c3)c2cc1OC` [AG1478], the “Effect on CCK-8-induced EGFR and ERK tyrosine phosphorylation in AR42J cells” value in the data set with AR42J cells (ref Piiper et al., 2003) is “inhibited”.
